The text below walks through data of PubChem BioAssay (NCI).

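Five concentrations, 48 hours, 96-well plates. GI50 = concentration required for 50% inhibition of growth. TGI: concentration producing complete growth inhibition.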

Some test systems named below: NCI-H23 lung; SNB-19 CNS; HS 578T breast; MCF7 breast; OVCAR-8 ovarian; UACC-257 melanoma; HT29 colon; DU-145 prostate; OVCAR-4 ovarian; NCI-H460 lung; SR leukemia.
Holding throughout (assay): DTP human tumour cell line panel, 48 h

A word on the TGI: it is the concentration giving total growth inhibition. The low end stands for more potent growth arrest, the high end for less potent growth arrest. Take `CNc1ccc(-c2nc3cc(C)ccc3o2)cc1`: the total growth inhibition concentration (TGI) with NCI-H23 lung, in the assay with SNB-19 CNS, in the assay on HS 578T breast, with MCF7 breast, in the assay with OVCAR-8 ovarian and in the assay with UACC-257 melanoma was over 100 µM in each case. In addition, the TGI in the assay with HT29 colon, in the assay on DU-145 prostate, in the assay with OVCAR-4 ovarian and in the assay on NCI-H460 lung was over 100 µM in each case.
Turning to `CCC1C(c2cccc(OC)c2O)c2cc3c(cc2OC1N1CCCC1)OCO3` (stereo not drawn), the TGI in the assay on NCI-H23 lung is over 100 µM; in the assay with SNB-19 CNS, 46.9 µM; in the assay on HS 578T breast, 29.9 µM; in the assay with MCF7 breast, over 100 µM; with OVCAR-8 ovarian, 89.9 µM; in the assay with UACC-257 melanoma it was 71.3 µM. Besides, the values for the concentration for total growth inhibition (TGI) with HT29 colon, in the assay on SR leukemia and in the assay with NCI-H460 lung were 37.5 µM, 50.4 µM and 55.3 µM, respectively.
With `CCOc1ccc(/C=C(\Cl)c2ccc(OC)c(OC)c2)cc1`, the TGI was over 100 µM with NCI-H23 lung; over 100 µM in the assay on SNB-19 CNS; over 100 µM with OVCAR-8 ovarian; 97.9 µM in the assay on UACC-257 melanoma; 40.9 µM in the assay on HT29 colon; over 100 µM with OVCAR-4 ovarian. For the same compound, in the assay on SR leukemia, the total growth inhibition concentration (TGI) is 91.4 µM.
As for `CCCCc1c(C(=O)OC(C)(C)C)cc(C#Cc2cc(C(=O)OC(C)(C)C)c(CCCC)c(C(=O)OC(C)(C)C)c2)cc1C(=O)OC(C)(C)C`, the concentration for total growth inhibition (TGI) in the assay with NCI-H23 lung, with SNB-19 CNS, in the assay on MCF7 breast, in the assay with UACC-257 melanoma, with DU-145 prostate and with OVCAR-4 ovarian was over 100 µM throughout. In the assay on NCI-H460 lung, this compound came in with a TGI of over 100 µM.
For the compound `O=C1CSc2nc3ccccc3n2/C=N\N1`, the total growth inhibition concentration (TGI) with NCI-H23 lung, with SNB-19 CNS, in the assay with MCF7 breast, in the assay on OVCAR-8 ovarian, with UACC-257 melanoma and with HT29 colon was over 100 µM throughout. The TGI in the assay with DU-145 prostate, with OVCAR-4 ovarian, in the assay with SR leukemia and in the assay with NCI-H460 lung was over 100 µM each time.
As to `O=C(CC/C=C(/CS(=O)(=O)c1ccccc1)S(=O)(=O)c1ccccc1)c1ccccc1`, the TGI with NCI-H23 lung, with SNB-19 CNS, with OVCAR-8 ovarian, in the assay with UACC-257 melanoma, in the assay on HT29 colon and in the assay on OVCAR-4 ovarian was over 100 µM in each case. Further, the TGI in the assay on SR leukemia and with NCI-H460 lung was over 100 µM in each case.
As to `O=C(/C=C/c1cccc(Br)c1)c1cccs1`, the TGI with NCI-H23 lung came out at 41.6 µM; in the assay on SNB-19 CNS, 28.3 µM; in the assay on HS 578T breast, 72.3 µM; in the assay on MCF7 breast it was 33 µM; in the assay with OVCAR-8 ovarian, 37.6 µM; with UACC-257 melanoma, 33 µM. Moreover, the TGI with HT29 colon is 25.3 µM; in the assay with OVCAR-4 ovarian, 31.8 µM; in the assay with SR leukemia, over 100 µM; in the assay on NCI-H460 lung, 31.6 µM.
As for `CC(C)C(C/C=C1\CC(CO)(COC(=O)c2ccccc2)OC1=O)C(C)C` (stereo not drawn), the concentration for total growth inhibition (TGI) was 38 µM in the assay with NCI-H23 lung; 31.8 µM in the assay on SNB-19 CNS; 33.4 µM in the assay on HS 578T breast; 40.9 µM with MCF7 breast; 36 µM with OVCAR-8 ovarian; 70.6 µM in the assay with UACC-257 melanoma. Also, the TGI in the assay with HT29 colon is 38.2 µM; with OVCAR-4 ovarian it was 35.6 µM; with SR leukemia, over 100 µM; in the assay on NCI-H460 lung, 43.7 µM.
For the compound `O=C(O)CCCCCOc1cccnc1/C=N/NC1=NCCN1`, the TGI with NCI-H23 lung, with SNB-19 CNS, in the assay on OVCAR-8 ovarian, in the assay on UACC-257 melanoma, in the assay on HT29 colon and in the assay with OVCAR-4 ovarian was over 100 µM throughout. Also, the TGI in the assay with SR leukemia and in the assay with NCI-H460 lung was over 100 µM in each case.
On to `O=C1O/C(=C(\Br)c2cccc3ccccc23)c2ccccc21`, for which the TGI in the assay with NCI-H23 lung was over 55.8 µM; in the assay on OVCAR-8 ovarian it was over 62.3 µM; in the assay with UACC-257 melanoma, over 56.1 µM; in the assay on HT29 colon it was 56.3 µM; with OVCAR-4 ovarian it was 30.9 µM; in the assay on SR leukemia, 51.5 µM. In addition, the concentration for total growth inhibition (TGI) in the assay on NCI-H460 lung is over 73 µM.
`COC(=O)/C=C(\C)C(=O)N(C)c1ccccc1I`: the total growth inhibition concentration (TGI) in the assay on NCI-H23 lung, with SNB-19 CNS, in the assay with MCF7 breast, with OVCAR-8 ovarian, in the assay with UACC-257 melanoma and with DU-145 prostate was over 100 µM each time. In addition, the concentration for total growth inhibition (TGI) in the assay with OVCAR-4 ovarian, with SR leukemia and in the assay on NCI-H460 lung was over 100 µM each time.
As for `COc1ccccc1C1SCC(=O)N1c1ccc(-c2ccc(-n3c(-c4ccccc4)nc4ccccc4c3=O)cc2)cc1` (stereo not drawn), the TGI with NCI-H23 lung, with SNB-19 CNS, with HS 578T breast, in the assay with MCF7 breast, in the assay on OVCAR-8 ovarian and in the assay with UACC-257 melanoma was over 100 µM each time. Also, the TGI in the assay on HT29 colon, with DU-145 prostate and with NCI-H460 lung was over 100 µM throughout.
For orientation: GI50 means the concentration at which growth is held to half of that of the control. `CC(=O)[C@@H]1CCC=C2CC[C@]3(C)[C@@H](CC[C@@H]4[C@@]5(C)CCCNC(C)(C)[C@@H]5CC[C@]43C)[C@H]21`: the GI50 was 1.87 µM with HS 578T breast; 1.37 µM in the assay with MCF7 breast; 1.99 µM in the assay on OVCAR-8 ovarian; 2.19 µM in the assay with UACC-257 melanoma; 1.2 µM with HT29 colon; 1.77 µM in the assay on DU-145 prostate. The GI50 in the assay with OVCAR-4 ovarian was 1.86 µM. Also, the concentration for total growth inhibition (TGI) in the assay on HS 578T breast was 4.39 µM; with MCF7 breast, 2.92 µM; in the assay on OVCAR-8 ovarian it was 3.94 µM; in the assay with UACC-257 melanoma, 4.29 µM; with HT29 colon, 2.58 µM; with DU-145 prostate it was 3.33 µM. In addition, in the assay on OVCAR-4 ovarian, the TGI came out at 3.39 µM.
For `CC12CCC(C(=O)O1)C(C)(C)O2` (stereo not drawn), the TGI in the assay on NCI-H23 lung, with SNB-19 CNS, with HS 578T breast, in the assay with MCF7 breast, in the assay on OVCAR-8 ovarian and in the assay with UACC-257 melanoma was over 100 µM in each case. The TGI in the assay on HT29 colon, with OVCAR-4 ovarian, in the assay on SR leukemia and in the assay on NCI-H460 lung was over 100 µM each time.
